Assay [1] deals with T1, recombinant human CD38 Protein (Homo sapiens, UniProt P28907).
T1 construct: purchased R&D System
T1 sequence (P28907 1-300): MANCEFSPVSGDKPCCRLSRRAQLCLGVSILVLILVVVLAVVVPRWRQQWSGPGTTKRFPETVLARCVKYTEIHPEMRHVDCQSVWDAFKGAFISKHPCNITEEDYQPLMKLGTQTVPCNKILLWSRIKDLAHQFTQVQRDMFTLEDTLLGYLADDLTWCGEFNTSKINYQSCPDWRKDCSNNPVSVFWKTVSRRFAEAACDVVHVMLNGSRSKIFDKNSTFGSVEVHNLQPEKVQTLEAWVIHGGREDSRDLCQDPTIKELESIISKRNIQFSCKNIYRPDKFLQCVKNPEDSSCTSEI
In words: Fluorescence-based NAD+ hydrolase activity assay with human recombinant CD38 protein (Assay 3). The class given is biochemical. Conditions: read-out: Assay 3 Arithmetic mean IC50. The method in brief: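 Recombinant human CD38, 10 ng/well in sucrose-Tris buffer (0.25 M sucrose, 40 mM Tris pH 7.4), with compound at 8 final concentrations from 400 nM to 25.6 pM; reaction started with 80 μM etheno-NAD+.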

Assay [2] has as its target T2, recombinant mouse CD38 Protein (Mus musculus, UniProt P56528).
T2 construct: purchased R&D System
T2 sequence (P56528 1-304): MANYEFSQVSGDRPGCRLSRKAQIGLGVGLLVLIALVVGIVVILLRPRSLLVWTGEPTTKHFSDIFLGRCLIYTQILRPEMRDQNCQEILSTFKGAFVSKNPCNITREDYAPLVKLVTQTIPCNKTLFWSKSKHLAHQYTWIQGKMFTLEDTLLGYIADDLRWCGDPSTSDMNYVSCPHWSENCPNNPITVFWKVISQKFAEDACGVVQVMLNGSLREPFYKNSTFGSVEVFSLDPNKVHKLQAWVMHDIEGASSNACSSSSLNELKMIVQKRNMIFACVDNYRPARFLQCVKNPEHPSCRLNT
In words: Fluorescence-based NAD+ hydrolase activity assay with mouse recombinant CD38 protein (Assay 5). The class given is biochemical. The note with it: read-out: Assay 5 Arithmetic mean IC50. The essentials: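 Recombinant mouse CD38 (2.5 ng/well) in 0.25 M sucrose, 40 mM Tris pH 7.4, with compound at 8 final concentrations from 400 nM to 25.6 pM; reaction started with 80 µM etheno-NAD+. Fluorescence (ex 321, em 410 nm) read each minute for 1 h at 37 °C; activity as linear slope, IC50 from 3 independent experiments.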

On to `Cn1ccnc1-c1cccc(C(=O)Nc2cccnc2)n1` [Compound 48], for which the IC50 in assay [1] and in assay [2] was 1 to 50 nM in each case.

For `Cc1cc(C(=O)Nc2cccnc2)nc(-n2ccnc2)n1` [Compound 49, 2-(1H-imidazol-1-yl)-6-methyl-N-(pyridin-3-yl)pyrimidine-4-carboxamide], the IC50 in assay [1] and in assay [2] was below 1 nM each time.

Turning to `Cc1cc(C(=O)Nc2ccncc2)nc(-n2ccnc2)n1` [Compound 50], the half-maximal inhibitory concentration (IC50) in assay [1] and in assay [2] was below 1 nM each time.

Turning to `O=C(Nc1ccnc(C(F)(F)F)c1)c1cc(C2CC2)nc(-n2ccnc2)n1` [Compound 51, 6-cyclopropyl-2-(1H-imidazol-1-yl)-N-(2-(trifluoromethyl)pyridin-4-yl)pyrimidine-4-carboxamide], the IC50 in assay [1] and in assay [2] was below 1 nM throughout.

For `Cc1cc(C(=O)Nc2ccncc2)nc(-n2ccnc2)c1` [Compound 52, 6-(1H-imidazol-1-yl)-4-methyl-N-(pyridin-4-yl)picolinamide], the IC50 was 1 to 50 nM in assay [1] and below 1 nM in assay [2].

Regarding `Cc1cc(C(=O)Nc2cccnc2)nc(-n2ccnc2)c1` [Compound 53], the IC50 in assay [1] was 1 to 50 nM; in assay [2], below 1 nM.

With `Cc1cc(C(=O)Nc2ccc(C(N)=O)nc2)nc(-n2ccnc2)c1` [Compound 54, N-(6-carbamoylpyridin-3-yl)-6-(1H-imidazol-1-yl)-4-methylpicolinamide], the IC50 in assay [1] was 1 to 50 nM; in assay [2] it was below 1 nM.

Turning to `Cc1cc(C(=O)Nc2ccnc(C(N)=O)c2)nc(-n2ccnc2)c1` [Compound 55], the IC50 in assay [1] and in assay [2] was below 1 nM in each case.

Regarding `CNC(=O)c1cc(NC(=O)c2cc(C)cc(-n3ccnc3)n2)ccn1` [Compound 56], the IC50 in assay [1] is 1 to 50 nM; in assay [2], below 1 nM.

On to `CNC(=O)c1ccc(NC(=O)c2cc(C)cc(-n3ccnc3)n2)cn1` [Compound 57], for which the IC50 in assay [1] and in assay [2] was below 1 nM each time.

Consider `Cc1ccc(-n2ccnc2)nc1C(=O)Nc1cccnc1` [Compound 59, 6-(1H-imidazol-1-yl)-3-methyl-N-(pyridin-3-yl)picolinamide], for which the IC50 in assay [1] and in assay [2] was 1 to 50 nM in each case.

Regarding `O=C(Nc1cccnc1)c1ccc(F)c(-n2ccnc2)n1` [Compound 61], the IC50 in assay [1] and in assay [2] was 1 to 50 nM each time.

With `O=C(Nc1cccnc1)c1nc(-n2ccnc2)ccc1F` [Compound 62], the IC50 in assay [1] and in assay [2] was 1 to 50 nM in each case.

For the compound `Nc1cc(C(=O)Nc2cccnc2)nc(-n2ccnc2)c1` [Compound 67], the IC50 in assay [1] and in assay [2] was 1 to 50 nM each time.

(Values after patent US12509451B2, “Heteroaryl amide inhibitors of CD38” (NAPA THERAPEUTICS LTD., priority 2020, dated 2025).)
